No end group written: not given here.
Legend:
[1] = tested on: Pseudomonas aeruginosa ATCC 9027; assay: Antimicrobial assay I, MIC by OD measurement; assay type: cell-based; conditions: 37° C. for 24 hours, absorbance 620 nm
[2] = tested on: Staphylococcus aureus ATCC 6538; assay: Antimicrobial assay I, MIC by OD measurement; assay type: cell-based; conditions: 37° C. for 24 hours, absorbance 620 nm
[3] = tested on: yeast (Saccharomyces cerevisiae); assay: Antimicrobial assay I, yeast assay in RPMI 1640; assay type: cell-based; conditions: RPMI 1640 media
BMKC = assay: Anti-cancer assay, MTT, LD50; assay type: cell-based; conditions: BMKC cloned melanoma line, 24 hours with peptide
Text: (§1) Numbers are LD50 values (μg/mL).

H1299 = assay: Anti-cancer assay, MTT, LD50; assay type: cell-based; conditions: 24 hours with peptide, lung large cell carcinoma
Text: as §1

HeLaS3 = assay: Anti-cancer assay, MTT, LD50; assay type: cell-based; conditions: 24 hours with peptide, cervical carcinoma
Text: as §1

MCF7 = assay: Anti-cancer assay, MTT, LD50; assay type: cell-based; conditions: MCF7 breast adenocarcinoma line, MTT, 24 hours with peptide
Text: as §1

PC3 = assay: Anti-cancer assay, MTT, LD50; assay type: cell-based; conditions: 24 hours with peptide, prostate adenocarcinoma
Text: as §1

SW480 = assay: Anti-cancer assay, MTT, LD50; assay type: cell-based; conditions: SW480 colon adenocarcinoma line, 24 hours with peptide
Text: as §1

[4] = tested on: human red blood cells (RBC); assay: in vitro; assay type: cell-based; conditions: hemolytic assay, concentration at 50% hemolysis, 1 hour at 37° C.
WI38 = conditions: MTT, 24 hours with peptide; for WI38 LD50: normal fibroblast line; for LD50 WI38: WI38 normal lung fibroblast line

Substance	paerug9027 (MIC) [1]	staph6538 (MIC) [2]	yeast (MIC or MFC) [3]	LD50 BMKC (BMKC)	H1299 LD50 (H1299)	HeLaS3 LD50 (HeLaS3)	LD50 MCF7 (MCF7)	PC3 LD50 (PC3)	LD50 SW480 (SW480)	LD50 [4]	WI38 LD50 (WI38)	LD50 WI38 (WI38)
FAKGVGKVGKKAL-NH2 [P137, FAKGVGKVGKKAL-NH2]	> (> indicates greater than 200 μg/mL)	> (> indicates greater than 200 μg/mL)	> (> indicates greater than 200 μg/mL)	> (> indicates greater than 1000)	> (> indicates greater than 1000)	> (> indicates greater than 1000)	> (> indicates greater than 1000)	> (> indicates greater than 1000)	> (> indicates greater than 1000)	> (> indicates greater than 1000)	> (> indicates greater than 1000)	> (> indicates greater than 1000)
FAKLLAKLAKK-NH2 [P151]	> (> indicates greater than 200 μg/mL)	> (> indicates greater than 200 μg/mL)	200 µg/mL	> (> indicates greater than 1000)	> (> indicates greater than 1000)	> (> indicates greater than 1000)	> (> indicates greater than 1000)	> (> indicates greater than 1000)	> (> indicates greater than 1000)	> (> indicates greater than 1000)	> (> indicates greater than 1000)	> (> indicates greater than 1000)
FAKLLAKLAKKEL-NH2 [P126]	> (> indicates greater than 200 μg/mL)	> (> indicates greater than 200 μg/mL)	> (> indicates greater than 200 μg/mL)	> (> indicates greater than 1000)	> (> indicates greater than 1000)	> (> indicates greater than 1000)	> (> indicates greater than 1000)	> (> indicates greater than 1000)	> (> indicates greater than 1000)	> (> indicates greater than 1000)	> (> indicates greater than 1000)	> (> indicates greater than 1000)
FAFGKGIGKVGKKLL-NH2 [P133]	> (> indicates greater than 200 μg/mL)	> (> indicates greater than 200 μg/mL)	> (> indicates greater than 200 μg/mL)	> (> indicates greater than 1000)	> (> indicates greater than 1000)	> (> indicates greater than 1000)	> (> indicates greater than 1000)	> (> indicates greater than 1000)	> (> indicates greater than 1000)	> (> indicates greater than 1000)	> (> indicates greater than 1000)	> (> indicates greater than 1000)
FALAKALKKAL-NH2 [P166, FALAKALKKAL-NH2]	> (> indicates greater than 200 μg/mL)	> (> indicates greater than 200 μg/mL)	> (> indicates greater than 200 μg/mL)	> (> indicates greater than 1000)	> (> indicates greater than 1000)	> (> indicates greater than 1000)	> (> indicates greater than 1000)	> (> indicates greater than 1000)	> (> indicates greater than 1000)	> (> indicates greater than 1000)	> (> indicates greater than 1000)	> (> indicates greater than 1000)
KAKLAKKALAKLL-NH2 [P149]	100 µg/mL	50 µg/mL	200 µg/mL	> (> indicates greater than 1000)	> (> indicates greater than 1000)	> (> indicates greater than 1000)	> (> indicates greater than 1000)	> (> indicates greater than 1000)	> (> indicates greater than 1000)	> (> indicates greater than 1000)	> (> indicates greater than 1000)	> (> indicates greater than 1000)
FAKKLAKKAKLAKKL-NH2 [P77]	100 µg/mL	200 µg/mL	200 µg/mL	125 µg/mL	> (> indicates greater than 1000)	> (> indicates greater than 1000)	> (> indicates greater than 1000)	> (> indicates greater than 1000)	> (> indicates greater than 1000)	> (> indicates greater than 1000)	> (> indicates greater than 1000)	> (> indicates greater than 1000)
FAKLWAKLAKKL-NH2 [P136]	50 µg/mL	100 µg/mL	100 µg/mL	530 µg/mL	450 µg/mL	400 µg/mL	500 µg/mL	900 µg/mL	600 µg/mL	> (> indicates greater than 1000)	> (> indicates greater than 1000)	> (> indicates greater than 1000)
FGKGIGKVGKKLL-NH2 [P132]	100 µg/mL	> (> indicates greater than 200 μg/mL)	> (> indicates greater than 200 μg/mL)	> (> indicates greater than 1000)	> (> indicates greater than 1000)	> (> indicates greater than 1000)	> (> indicates greater than 1000)	> (> indicates greater than 1000)	> (> indicates greater than 1000)	> (> indicates greater than 1000)	> (> indicates greater than 1000)	> (> indicates greater than 1000)
FAKKALKALKKL-NH2 [P47]	100 µg/mL	200 µg/mL	50 µg/mL	700 µg/mL	> (> indicates greater than 1000)	> (> indicates greater than 1000)	575 µg/mL	> (> indicates greater than 1000)	> (> indicates greater than 1000)	> (> indicates greater than 1000)	> (> indicates greater than 1000)	> (> indicates greater than 1000)
FAFAKIIAKIAKKII-NH2 [P140]	> (> indicates greater than 200 μg/mL)	> (> indicates greater than 200 μg/mL)	> (> indicates greater than 200 μg/mL)	> (> indicates greater than 1000)	> (> indicates greater than 1000)	285 µg/mL	> (> indicates greater than 1000)	> (> indicates greater than 1000)	> (> indicates greater than 1000)	> (> indicates greater than 1000)	> (> indicates greater than 1000)	> (> indicates greater than 1000)
FAKKLAKALL-NH2 [P58]	100 µg/mL	100 µg/mL	200 µg/mL	> (> indicates greater than 1000)	> (> indicates greater than 1000)	> (> indicates greater than 1000)	> (> indicates greater than 1000)	> (> indicates greater than 1000)	> (> indicates greater than 1000)	> (> indicates greater than 1000)	> (> indicates greater than 1000)	> (> indicates greater than 1000)
FAKKLKKLAKKL-NH2 [P79]	200 µg/mL	100 µg/mL	100 µg/mL	830 µg/mL	> (> indicates greater than 1000)	> (> indicates greater than 1000)	540 µg/mL	> (> indicates greater than 1000)	> (> indicates greater than 1000)	> (> indicates greater than 1000)	> (> indicates greater than 1000)	> (> indicates greater than 1000)
FALKALKKAL-NH2 [P170, FALKALKKAL-NH2]	100 µg/mL	200 µg/mL	100 µg/mL	> (> indicates greater than 1000)	> (> indicates greater than 1000)	> (> indicates greater than 1000)	940 µg/mL	> (> indicates greater than 1000)	> (> indicates greater than 1000)	> (> indicates greater than 1000)	> (> indicates greater than 1000)	> (> indicates greater than 1000)

Source: US20050209157A1, “Short bioactive peptides and methods for their use” (priority 2001, published 2005)
